The text below walks through data of ChEMBL document CHEMBL1201862, “PubChem BioAssay data set” (2004).

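Cultured in 96-well plates, cells were exposed to test compound for 48 hours across five concentrations. The concentration for 50% growth inhibition is given as GI50.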 Activity calls are given as the source filed them. Rule as the data show it: active = GI50 up to about 1.1 µM and inactive = higher.

Among the test systems are DLD-1; SK-MEL-5; HOP-92; HCT-15; HOP-18; MOLT-4; OVCAR-5; HL-60; OVCAR-4; RPMI-8226; SK-OV-3; TK-10; SNB-19; SNB-75; M19-MEL; LOX IMVI; SR.
Common to all, as to experiment: NCI tumour cell line growth inhibition, 48 h

For `CCOC(OC(C)=O)[C@@H]1C=C[C@H](C)N(c2ccc([N+](=O)[O-])cc2)O1` (some centres undefined), the GI50 in the assay with DLD-1 was 2.59 µM (inactive); in the assay on SK-MEL-5, 4 µM (inactive); in the assay on HOP-92, 6.25 µM (inactive); in the assay with HCT-15, 2.4 µM; in the assay with HOP-18, 8.79 µM (inactive); in the assay on MOLT-4, 1.86 µM (inactive). The GI50 was 2.76 µM (inactive) with OVCAR-5; 1.82 µM (inactive) with HL-60; 6.49 µM (inactive) with OVCAR-4; 2.06 µM (inactive) in the assay on RPMI-8226; 17.8 µM (inactive) in the assay with SK-OV-3; 5.7 µM (inactive) in the assay on TK-10. In addition, the GI50 with SNB-19 was 14.7 µM (inactive); with SNB-75, 4.79 µM (inactive); in the assay on M19-MEL, 2.14 µM (inactive); in the assay with LOX IMVI, 1.87 µM (inactive).

For the compound `O=C(CC1(O)C(=O)Nc2c(Cl)cc(Cl)cc21)c1cccc2ccccc12` (centres undefined), the GI50 is 15.8 µM (inactive) with DLD-1; 15.2 µM (inactive) with SK-MEL-5; 16.5 µM in the assay with HCT-15; 17.9 µM (inactive) in the assay with HOP-18; 20 µM (inactive) in the assay with MOLT-4; 22.4 µM (inactive) in the assay on OVCAR-5. In addition, the GI50 in the assay with HL-60 is 10.5 µM (inactive); with SR, 16.9 µM (inactive); in the assay with OVCAR-4, 12.4 µM (inactive); in the assay on RPMI-8226 it was 19.6 µM (inactive); in the assay with SK-OV-3 it was 16.6 µM (inactive); with TK-10, 14.1 µM (inactive). For the same compound, the GI50 was 14.1 µM (inactive) in the assay with SNB-19, 18.2 µM (inactive) with SNB-75 and 17.7 µM (inactive) in the assay on LOX IMVI.

Consider `COc1cc([C@@H]2c3cc4c(cc3[C@@H](NCc3ccccc3F)C3COC(=O)[C@@H]32)OCO4)cc(OC)c1O` (some centres undefined), for which the GI50 is 11.9 µM (inactive) with DLD-1; 0.828 µM (active) in the assay on SK-MEL-5; 4.04 µM (inactive) in the assay with HOP-92; 1.63 µM in the assay with HCT-15; > 100 µM (inactive) with HOP-18; 0.425 µM (active) in the assay with MOLT-4. In addition, the GI50 with OVCAR-5 is 24.8 µM (inactive); in the assay with HL-60 it was 1.18 µM (inactive); in the assay on OVCAR-4 it was 16.6 µM (inactive); in the assay on RPMI-8226 it was 1.93 µM (inactive); with SK-OV-3 it was 2.58 µM (inactive); in the assay on TK-10, 27.6 µM (inactive). Moreover, the GI50 in the assay on SNB-19 was 5.36 µM (inactive); with SNB-75, 5.45 µM (inactive); in the assay with M19-MEL it was 3.47 µM (inactive); with LOX IMVI, 3.07 µM (inactive).

As for `CCOC(=O)c1ccc(/N=N/c2cc(C(=O)OCC)ccc2O)cc1`, the GI50 was > 100 µM (inactive) in the assay with DLD-1; > 100 µM (inactive) in the assay on SK-MEL-5; > 100 µM (inactive) in the assay with HOP-92; greater than 100 µM with HCT-15; > 100 µM (inactive) in the assay on HOP-18; 80.7 µM (inactive) in the assay with MOLT-4. In addition, the GI50 in the assay with HL-60, in the assay on RPMI-8226, with SK-OV-3, with TK-10, in the assay on M19-MEL and with LOX IMVI was > 100 µM (inactive) throughout.

With `N#Cc1cc([N+](=O)[O-])ccc1NC(=O)C(=O)Nc1n[nH]c(N)n1`, the GI50 with DLD-1 was > 100 µM (inactive); in the assay with SK-MEL-5, > 100 µM (inactive); in the assay with HOP-92 it was > 100 µM (inactive); in the assay with HCT-15 it was greater than 100 µM; with MOLT-4 it was > 100 µM (inactive); with OVCAR-5, > 100 µM (inactive). In addition, the GI50 in the assay with HL-60, in the assay with OVCAR-4, in the assay on RPMI-8226, in the assay on SK-OV-3, with TK-10 and in the assay with SNB-19 was > 100 µM (inactive) each time. The GI50 with SNB-75, in the assay with M19-MEL and in the assay on LOX IMVI was > 100 µM (inactive) in each case.

Turning to `c1cc2nnsc2s1`, the GI50 in the assay on DLD-1 was 60.4 µM (inactive); with SK-MEL-5, > 100 µM (inactive); in the assay with HOP-92 it was > 100 µM (inactive); in the assay on HCT-15 it was greater than 100 µM; in the assay on HOP-18 it was > 100 µM (inactive); with MOLT-4, > 100 µM (inactive). Moreover, the GI50 in the assay with OVCAR-5 is > 100 µM (inactive); with HL-60, > 100 µM (inactive); in the assay on OVCAR-4 it was > 100 µM (inactive); with RPMI-8226 it was 93.5 µM (inactive); in the assay with SK-OV-3 it was > 100 µM (inactive); in the assay with TK-10 it was > 100 µM (inactive). The GI50 was > 100 µM (inactive) in the assay on SNB-19, > 100 µM (inactive) in the assay on SNB-75, > 100 µM (inactive) in the assay on M19-MEL and 60 µM (inactive) in the assay with LOX IMVI.

For `O=C1c2ccccc2C(=O)c2[nH]cnc21`, the GI50 in the assay on DLD-1 was 27 µM (inactive); in the assay with SK-MEL-5 it was 18.1 µM (inactive); in the assay with HCT-15, 48.5 µM; in the assay with MOLT-4 it was 49.5 µM (inactive); with HL-60, 23.6 µM (inactive); with SR, 44 µM (inactive). For the same compound, the GI50 in the assay with OVCAR-4 is 76.6 µM (inactive); with TK-10, > 100 µM (inactive); with SNB-19, 46.7 µM (inactive); with M19-MEL, 20.4 µM (inactive).

With `NCCN1C(=O)C2C3c4ccccc4C(c4ccccc43)C2C1=O` (centres undefined), the GI50 in the assay with DLD-1 was > 100 µM (inactive); in the assay on SK-MEL-5, > 100 µM (inactive); in the assay with HOP-92, 28.2 µM (inactive); with HCT-15, greater than 100 µM; with HOP-18 it was > 100 µM (inactive); in the assay on MOLT-4, > 100 µM (inactive). The GI50 with OVCAR-5, in the assay with HL-60, with OVCAR-4, with RPMI-8226, in the assay on SK-OV-3 and in the assay on TK-10 was > 100 µM (inactive) throughout. Further, the GI50 in the assay on SNB-19 is > 100 µM (inactive); in the assay with SNB-75, 43.3 µM (inactive); with M19-MEL, > 100 µM (inactive).

In the case of `Cc1cc(-c2ccccc2)nc(Nc2nc3ccccc3o2)n1`, the GI50 with DLD-1 was > 100 µM (inactive); in the assay on SK-MEL-5, > 100 µM (inactive); in the assay with HOP-92, 89.3 µM (inactive); in the assay on HCT-15, greater than 100 µM; with MOLT-4 it was > 100 µM (inactive); with OVCAR-5 it was > 100 µM (inactive). In addition, the GI50 with HL-60, in the assay with SR, with OVCAR-4, in the assay with RPMI-8226, in the assay on SK-OV-3 and in the assay on TK-10 was > 100 µM (inactive) throughout. Besides, the GI50 in the assay on SNB-19, in the assay on M19-MEL and with LOX IMVI was > 100 µM (inactive) throughout.

As to `Nc1ccccc1C(=O)/C=C/c1ccccc1O`, the GI50 was 47.2 µM (inactive) in the assay on DLD-1; 65 µM (inactive) with SK-MEL-5; 20.6 µM (inactive) in the assay on HOP-92; 8.34 µM (inactive) in the assay on HOP-18; 31.3 µM (inactive) in the assay on MOLT-4; > 100 µM (inactive) in the assay with OVCAR-5. Further, the GI50 is 22.8 µM (inactive) with HL-60; 48.6 µM (inactive) in the assay with OVCAR-4; 27.5 µM (inactive) with RPMI-8226; > 100 µM (inactive) in the assay on SK-OV-3; 93.5 µM (inactive) with TK-10; 81.1 µM (inactive) in the assay on SNB-19. Further, the GI50 in the assay on SNB-75 is 17.5 µM (inactive); in the assay with M19-MEL, 72.3 µM (inactive); in the assay on LOX IMVI it was 43.8 µM (inactive).

On to `COc1cc(C2c3cc4c(cc3[C@@H](NCCN3CCCCC3)C3COC(=O)[C@H]23)OCO4)cc(OC)c1O` (some centres undefined), for which the GI50 is 1.6 µM (inactive) in the assay with DLD-1; 0.325 µM (active) in the assay on SK-MEL-5; 0.265 µM (active) in the assay on HOP-92; 0.337 µM in the assay on HCT-15; 0.509 µM (active) in the assay on HOP-18; < 0.01 µM (active) with MOLT-4. Besides, the GI50 in the assay on OVCAR-5 was 1.69 µM (inactive); in the assay with HL-60, 0.0322 µM (active); with OVCAR-4, 0.27 µM (active); with RPMI-8226, 0.4 µM (active); in the assay with SK-OV-3, 0.0526 µM (active); with TK-10 it was 1.89 µM (inactive). The GI50 with SNB-19 was 0.323 µM (active); in the assay with SNB-75, 0.256 µM (active); with M19-MEL it was 1 µM (active); with LOX IMVI, 0.204 µM (active).

With `CC1CCc2c(sc3ncnc(N/N=C/c4ccc(Cl)c(Cl)c4)c23)C1` (centres undefined), the GI50 in the assay with DLD-1 is 9.33 µM (inactive); with SK-MEL-5 it was 16.7 µM (inactive); in the assay with HCT-15 it was 9.73 µM; with MOLT-4, 7.4 µM (inactive); in the assay with OVCAR-5, 32.7 µM (inactive); with HL-60, 22.2 µM (inactive). The GI50 was 4.83 µM (inactive) in the assay with SR; 13.2 µM (inactive) in the assay on RPMI-8226; 25.2 µM (inactive) in the assay with SK-OV-3; 23.7 µM (inactive) with TK-10; 17.5 µM (inactive) with SNB-19; 15.1 µM (inactive) with SNB-75. The results for the GI50 in the assay on M19-MEL and in the assay with LOX IMVI were 19.8 µM (inactive) and 11.9 µM (inactive), respectively.

Take `CC(=O)OCCOCNC(=S)N/N=C/c1ccc(Br)s1`: the GI50 is > 81.8 µM (inactive) in the assay with DLD-1; > 100 µM (inactive) in the assay with SK-MEL-5; > 100 µM (inactive) in the assay on HOP-92; greater than 100 µM with HCT-15; > 100 µM (inactive) in the assay with HOP-18; > 26.1 µM (inactive) with MOLT-4. Also, the GI50 in the assay on OVCAR-5 is > 100 µM (inactive); in the assay with OVCAR-4, > 93.3 µM (inactive); in the assay on RPMI-8226, 5.08 µM (inactive); in the assay on SK-OV-3, > 100 µM (inactive); in the assay on TK-10 it was > 100 µM (inactive); in the assay on SNB-19, > 100 µM (inactive). Besides, the results for the GI50 with SNB-75, in the assay on M19-MEL and in the assay with LOX IMVI were > 100 µM (inactive), > 100 µM (inactive) and 77.1 µM (inactive), respectively.

Consider `CS(=O)(=O)N(CCC#N)c1ccc(/C=N/NC(=O)CC(=O)Nc2cccc(Cl)c2)cc1`, for which the GI50 is > 100 µM (inactive) in the assay on DLD-1; > 100 µM (inactive) in the assay with SK-MEL-5; greater than 100 µM with HCT-15; > 100 µM (inactive) in the assay on HOP-18; > 100 µM (inactive) in the assay with MOLT-4; > 100 µM (inactive) with OVCAR-5. The GI50 with OVCAR-4, with RPMI-8226, with SK-OV-3, in the assay on TK-10, in the assay with SNB-19 and in the assay on SNB-75 was > 100 µM (inactive) throughout. The GI50 in the assay with M19-MEL and in the assay on LOX IMVI was > 100 µM (inactive) each time.
